One data set concerns the target T1, hTLR5 (Homo sapiens, UniProt O60602).
T1 construct: expressed in transfected cells; host or cells: HEK293
Kind of data set: Human TLR antagonist screening, NF-κB SEAP reporter in HEK293 cells. The data set is classed as cell-based. As to conditions: antagonist mode, test article 1 μM, +FLA-ST 50 ng/ml, No Sample 34, Control− 1. The procedure:
Toll-Like Receptor (TLR), NOD-Like Receptor (NLR) and C-Type Lectin Receptor (CLR) stimulation were tested by assessing NF-κB activation in HEK293 cells expressing a given TLR, NLR or CLR. The activity of the test articles was tested at one concentration and compared to control ligands. These steps were performed in triplicate. […] In a 96-well plate (200 μL total volume) containing the appropriate cells (50,000-75,000 cells/well), 20 μL of the test article or the positive control ligand was added to the wells. For the antagonist assay, the test article was incubated with the cells, at 37° C. with 5% CO2, for 30 minutes prior to the addition of the positive control ligand to the wells. The media added to the wells was designed for the detection of NF-κB induced SEAP expression. […] Fold induction (ratio of average induced value to average non-induced value) was determined for each TLR, NOD1, NOD2, Dectin-1a, Dectin-1b.

For data set [1] the following is noted: taken orally; cited from earlier work.
A further data set has as its target T2, Human TLR2 (Homo sapiens, UniProt O60603).
T2 construct: expressed in transfected cells; host or cells: HEK293
Nature of the data set: Human TLR antagonist screening, NF-κB SEAP reporter in HEK293 cells. The data set is classed as cell-based. The settings on record: antagonist mode, test article 1 μM, +HKLM 1 × 10^6 cells/mL, No Sample 6, Control− 1. As to the method: Toll-Like Receptor (TLR), NOD-Like Receptor (NLR) and C-Type Lectin Receptor (CLR) stimulation were tested by assessing NF-κB activation in HEK293 cells expressing a given TLR, NLR or CLR. The activity of the test articles was tested at one concentration and compared to control ligands. These steps were performed in triplicate. TLR2: […] Antagonist: 1×10^6 cells/mL: In a 96-well plate (200 μL total volume) containing the appropriate cells (50,000-75,000 cells/well), 20 μL of the test article or the positive control ligand was added to the wells. For the antagonist assay, the test article was incubated with the cells, at 37° C. with 5% CO2, for 30 minutes prior to the addition of the positive control ligand to the wells. The media added to the wells was designed for the detection of NF-κB induced SEAP expression. After a 16-24 hr incubation the optical density (OD) was read at 650 nm on a Molecular Devices SpectraMax 340PC absorbance detector. Fold induction (ratio of average induced value to average non-induced value) was determined for each TLR, NOD1, NOD2, Dectin-1a, Dectin-1b.

In the next data set the target is T3, Human TLR3 (Homo sapiens, UniProt O15455).
T3 construct: expressed in transfected cells; host or cells: HEK293
T3 sequence (O15455 24-904): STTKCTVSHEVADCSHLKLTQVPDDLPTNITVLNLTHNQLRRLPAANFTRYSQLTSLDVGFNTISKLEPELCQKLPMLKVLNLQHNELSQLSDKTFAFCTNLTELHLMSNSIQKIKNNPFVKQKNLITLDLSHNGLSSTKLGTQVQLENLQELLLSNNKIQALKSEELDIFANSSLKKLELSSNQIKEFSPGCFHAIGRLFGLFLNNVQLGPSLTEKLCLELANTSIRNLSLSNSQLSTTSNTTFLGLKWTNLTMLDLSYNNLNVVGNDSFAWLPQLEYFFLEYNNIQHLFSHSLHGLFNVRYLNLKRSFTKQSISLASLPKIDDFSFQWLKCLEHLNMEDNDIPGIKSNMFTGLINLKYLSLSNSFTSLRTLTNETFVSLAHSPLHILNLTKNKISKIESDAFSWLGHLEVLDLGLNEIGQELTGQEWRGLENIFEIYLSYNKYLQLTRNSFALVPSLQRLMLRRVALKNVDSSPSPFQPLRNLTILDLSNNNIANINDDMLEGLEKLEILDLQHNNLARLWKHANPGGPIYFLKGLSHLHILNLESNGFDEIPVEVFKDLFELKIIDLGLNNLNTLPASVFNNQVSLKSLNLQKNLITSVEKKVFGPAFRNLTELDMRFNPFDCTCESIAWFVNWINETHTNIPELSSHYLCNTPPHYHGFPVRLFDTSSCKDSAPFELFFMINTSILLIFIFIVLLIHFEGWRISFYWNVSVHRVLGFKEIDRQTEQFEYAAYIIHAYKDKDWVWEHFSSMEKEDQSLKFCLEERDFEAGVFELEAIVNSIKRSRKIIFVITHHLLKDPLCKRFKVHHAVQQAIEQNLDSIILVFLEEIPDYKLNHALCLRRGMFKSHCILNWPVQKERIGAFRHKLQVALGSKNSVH
The data set is described as above. The data set is classed as cell-based. The settings on record: antagonist mode, test article 1 μM, +Poly(I:C) 50 ng/ml, No Sample 14, Control− 1. The procedure: Toll-Like Receptor (TLR), NOD-Like Receptor (NLR) and C-Type Lectin Receptor (CLR) stimulation were tested by assessing NF-κB activation in HEK293 cells expressing a given TLR, NLR or CLR. The activity of the test articles was tested at one concentration and compared to control ligands. These steps were performed in triplicate. hTLR3: Poly(I:C) HMW at 1 μg/mL Antagonist: 50 ng/mL. In a 96-well plate (200 μL total volume) containing the appropriate cells (50,000-75,000 cells/well), 20 μL of the test article or the positive control ligand was added to the wells. For the antagonist assay, the test article was incubated with the cells, at 37° C. with 5% CO2, for 30 minutes prior to the addition of the positive control ligand to the wells. The media added to the wells was designed for the detection of NF-κB induced SEAP expression. After a 16-24 hr incubation the optical density (OD) was read at 650 nm on a Molecular Devices SpectraMax 340PC absorbance detector. Fold induction (ratio of average induced value to average non-induced value) was determined for each TLR, NOD1, NOD2, Dectin-1a, Dectin-1b.

T1 sequence (O60602 21-858): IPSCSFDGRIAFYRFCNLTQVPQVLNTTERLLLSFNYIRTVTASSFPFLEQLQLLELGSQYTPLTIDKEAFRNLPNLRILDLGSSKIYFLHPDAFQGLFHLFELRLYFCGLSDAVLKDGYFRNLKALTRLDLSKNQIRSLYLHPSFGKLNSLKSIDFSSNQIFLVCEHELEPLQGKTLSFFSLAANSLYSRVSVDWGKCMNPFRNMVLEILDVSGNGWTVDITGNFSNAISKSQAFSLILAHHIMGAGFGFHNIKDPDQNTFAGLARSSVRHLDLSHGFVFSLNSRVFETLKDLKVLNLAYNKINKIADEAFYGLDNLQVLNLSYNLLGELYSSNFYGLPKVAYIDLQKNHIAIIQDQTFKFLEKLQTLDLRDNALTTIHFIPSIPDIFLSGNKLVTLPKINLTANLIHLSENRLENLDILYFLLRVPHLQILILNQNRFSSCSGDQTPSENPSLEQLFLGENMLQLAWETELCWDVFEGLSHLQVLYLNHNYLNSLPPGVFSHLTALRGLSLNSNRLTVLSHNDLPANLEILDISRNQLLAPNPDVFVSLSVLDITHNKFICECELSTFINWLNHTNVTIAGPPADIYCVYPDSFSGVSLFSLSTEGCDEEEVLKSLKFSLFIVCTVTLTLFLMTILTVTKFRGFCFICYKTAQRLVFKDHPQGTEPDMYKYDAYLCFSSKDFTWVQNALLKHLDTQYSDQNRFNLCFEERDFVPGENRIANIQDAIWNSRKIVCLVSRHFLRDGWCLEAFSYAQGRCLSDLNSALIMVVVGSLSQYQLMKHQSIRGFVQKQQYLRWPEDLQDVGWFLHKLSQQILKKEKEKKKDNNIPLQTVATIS
T2 sequence (O60603 21-784): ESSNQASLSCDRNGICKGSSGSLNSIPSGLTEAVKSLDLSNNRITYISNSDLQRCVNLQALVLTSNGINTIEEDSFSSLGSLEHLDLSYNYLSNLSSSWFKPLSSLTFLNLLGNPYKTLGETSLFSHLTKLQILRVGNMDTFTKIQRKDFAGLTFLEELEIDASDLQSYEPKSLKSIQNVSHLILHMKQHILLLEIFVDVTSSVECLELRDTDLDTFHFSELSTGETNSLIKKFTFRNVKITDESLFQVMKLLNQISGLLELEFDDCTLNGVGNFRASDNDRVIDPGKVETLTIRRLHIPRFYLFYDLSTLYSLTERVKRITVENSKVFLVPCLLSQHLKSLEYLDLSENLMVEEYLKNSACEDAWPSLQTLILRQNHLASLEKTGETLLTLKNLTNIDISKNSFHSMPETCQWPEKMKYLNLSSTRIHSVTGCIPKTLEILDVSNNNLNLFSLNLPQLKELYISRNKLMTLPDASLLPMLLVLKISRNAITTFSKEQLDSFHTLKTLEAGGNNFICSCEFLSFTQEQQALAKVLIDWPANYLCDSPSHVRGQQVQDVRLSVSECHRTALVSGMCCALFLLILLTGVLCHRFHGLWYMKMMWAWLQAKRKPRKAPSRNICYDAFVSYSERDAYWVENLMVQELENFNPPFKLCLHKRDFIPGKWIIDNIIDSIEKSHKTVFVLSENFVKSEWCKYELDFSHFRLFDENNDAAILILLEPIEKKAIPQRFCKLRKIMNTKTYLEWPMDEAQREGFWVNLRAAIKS

For `CN(C)CCC=C1c2ccccc2CCc2ccccc21` [Amitriptyline], the “Fold Induction” value on hTLR5 is given as “slight inhibitory effect”; at hTLR5 (listed as Ami), 33; at Human TLR2, “slight inhibitory effect”; on Human TLR2 (listed as Ami), 5; at Human TLR3, “slight inhibitory effect”; at Human TLR3 (listed as Ami) it was 12. Further, the side effects entry in data set [1] was “drowsiness, dry mouth, blurred vision, pupil dilation, constipation, weight and urinary retention”.

`CNCCC=C1c2ccccc2CCc2ccccc21` [Nortriptyline]: the “Fold Induction” value at hTLR5 is 34; on Human TLR2, “slight inhibitory effect”; at Human TLR2 (listed as Nor) it was 5; at Human TLR3, “slight inhibitory effect”; on Human TLR3 (listed as Nor) it was 12.

(Values after patent US11400059B2, “Treatment of pain and/or pain related symptoms associated with dysmenorrhea” (ALYRA BIOTECH PTY LTD, priority 2017, dated 2022).)
